Literature values, collected in patent publication US20250186494A1, “CAR-T THERAPIES TARGETED VIA COVALENTLY BONDED ADAPTERS” (THE SCRIPPS RESEARCH INSTITUTE, priority 2023, published 2025).

Biological target: PSMA (Homo sapiens, UniProt Q04609)
Details: already known targeting moiety

Chain of PSMA (Q04609 whole entry): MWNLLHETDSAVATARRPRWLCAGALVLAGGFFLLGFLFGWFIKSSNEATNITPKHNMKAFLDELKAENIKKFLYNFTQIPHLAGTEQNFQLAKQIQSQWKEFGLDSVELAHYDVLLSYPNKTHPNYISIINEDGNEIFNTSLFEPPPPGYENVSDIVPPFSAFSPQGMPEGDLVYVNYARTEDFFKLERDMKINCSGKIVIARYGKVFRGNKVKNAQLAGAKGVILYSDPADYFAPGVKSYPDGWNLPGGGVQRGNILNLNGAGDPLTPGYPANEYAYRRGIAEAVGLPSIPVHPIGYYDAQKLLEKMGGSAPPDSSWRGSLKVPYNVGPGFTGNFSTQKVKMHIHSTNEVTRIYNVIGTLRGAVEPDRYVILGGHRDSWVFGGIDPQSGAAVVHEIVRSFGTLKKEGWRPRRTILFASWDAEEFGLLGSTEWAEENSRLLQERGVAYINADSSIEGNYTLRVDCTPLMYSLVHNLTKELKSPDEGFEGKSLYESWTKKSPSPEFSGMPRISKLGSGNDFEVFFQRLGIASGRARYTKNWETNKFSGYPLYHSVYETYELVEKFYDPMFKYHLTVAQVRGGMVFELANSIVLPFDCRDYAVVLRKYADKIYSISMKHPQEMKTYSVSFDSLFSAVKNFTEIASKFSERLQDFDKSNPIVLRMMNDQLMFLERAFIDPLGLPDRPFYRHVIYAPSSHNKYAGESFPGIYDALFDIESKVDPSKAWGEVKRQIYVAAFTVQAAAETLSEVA

O=C(O)CCC(NC(=O)NC(CCC(=O)O)C(=O)O)C(=O)O (stereo not shown) [DUPA, 2-[3-(1,3-dicarboxypropyl)ureido]pentanedioic acid]
affinity for PSMA: nM affinity
